The source of these data is patent publication US6048529A, “PVA or PEG conjugates of peptides for epitope-specific immunosuppression” (priority 1995, dated 2000).

“Also recorded” adds a separate entry of the source. Where a SMILES comes first, the peptide text is derived from it. Bridges are numbered along the chain shown (N, C = ends). Where no end group is shown, it is not given here.

In data set [1] the test system is experimental autoimmune myasthenia gravis (EAMG). As to the kind of experiment: Electrophysiological EAMG: EMG during repetitive nerve stimulation after immunization with Torpedo AChR. The format is in vivo, C57/BL6 mice. Conditions: for proportion of mice showing a decremental response greater than 10%: 5 μg i.p. at 11, 7 and 3 days before immunization with Torpedo AChR, EMG on days 38-39. The protocol: Six weeks old C57/BL6 mice were purchased from Charles River Breeding Laboratories (Wilmington, Mass.). Preimmune sera were obtained from the mice for use as controls in subsequent antibody binding assays. […] Then, on day 0, the mice were immunized subcutaneously in one hind footpad and intramuscularly in the same side shoulder with 20 μg of Torpedo AChR in 100 μl emulsion containing equal volumes of complete Freund's adjuvant and PBS. Thirty days later, the mice were immunized with a similar dose of the receptor in the opposite footpad and shoulder. On the 37th day, test bleeds were obtained from the mice for determination of the antibody titers. Electrophysiological studies were performed on the 38th and 39th days. Finally, the mice were sacrificed on the 40th day and lymph node cells were obtained for Electrophysiological Studies To document the electrophysiological evidence of EAMG, amplitudes of serial muscle action potentials were measured by electromyography (EMG) during the repetitive stimulation of the nerve in immunized mice, using the Mystro EMG system (TECA Corporation). A pair of wire electrodes were surgically implanted, encircling the sciatic nerve, two days before EMG. The nerve was stimulated through the implanted electrodes by 3 Hz trains of supramaximal electric current with a duration of 200 microseconds. The corresponding muscle action potentials were recorded with an electrode subcutaneously inserted over the gastrocnemius muscle. A reference electrode was placed at the ankle. Ether inhalation was used during the surgical and recording procedures. […] Students' t-test was used to analyze the differences of amplitude changes between the two groups. A typical myasthenic response of a greater than 10% decrement was considered to constitute an electrophysiological evidence of EAMG. The frequency of electrophysiological EAMG was calculated in each group and analyzed by chi-square test.

A further data set has as its system peptide α125-148. As to the kind of experiment: Radioimmunoassay of anti-AChR antisera: antibody binding to peptide α125-148. It is filed as in vivo, C57/BL6 mice. The note with it: for binding to peptide α125-148 of antibodies in pooled antisera at serial dilutions (in words): pooled antisera of each group, compared with the other groups. The protocol:
(§1) Six weeks old C57/BL6 mice were purchased from Charles River Breeding Laboratories (Wilmington, Mass.). Preimmune sera were obtained from the mice for use as controls in subsequent antibody binding assays. After 2-weeks rest, the mice were divided into three groups which received, at eleven, seven and three days before immunization with AChR, an intraperitoneal injection (5 μg in 25 μl of PBS) of either the mPEG-(α125-148) conjugate (Group 1), mPEG-nonsense peptide conjugate (Group 2) or unaltered free peptide α125-148 (Group 3) (FIG. 5). Then, on day 0, the mice were immunized subcutaneously in one hind footpad and intramuscularly in the same side shoulder with 20 μg of Torpedo AChR in 100 μl emulsion containing equal volumes of complete Freund's adjuvant and PBS. Thirty days later, the mice were immunized with a similar dose of the receptor in the opposite footpad and shoulder. On the 37th day, test bleeds were obtained from the mice for determination of the antibody titers. Electrophysiological studies were performed on the 38th and 39th days. Finally, the mice were sacrificed on the 40th day and lymph node cells were obtained for
One mg of the synthetic peptide was dissolved in 50 μl dimethylformamide and then diluted with PBS to 25 μg/ml. A solution of Torpedo AChR in PBS was prepared to contain 2.5 μg/ml. Aliquots (50 μl/well) of the peptide or AChR solutions were added to a 96-well microtiter plate (Falcon Micro Test III flexible assay plate, Becton Dickinson, Oxcard, Calif.) and the plates were incubated at room temperature overnight. After washing 3 times with PBS, the plates were blocked with 0.25% bovine serum albumin (BSA) in PBS (50 μl/well) at 37° C. for 90 minutes. The plates were washed again 5 times with PBS and to each well was added 50 μl of the serum from AChR-immunized mice, pre-diluted with PBS containing 0.10% BSA, and the plates were covered and allowed to stand at room temperature overnight. After 5 washes with PBS, 50 μl of rabbit IgG antibodies (2.5 μg/ml) against mouse IgG and IgM (Accurate Chemical Scientific Corporation, Westbury, N.Y.) was added to each well and the plates were incubated at 37° C. for 3 hours. The plates were then washed 5 times with PBS and ^125 I-labeled protein A (2×10^5 cpm in 50 μl of PBS-0.1% BSA) was added to each well. The plates were incubated for 3 hours at room temperature, after which they were washed and the wells were cut out and counted for bound radioactivity. Pre-immune serum samples, obtained from the mice prior to any experimental treatments, were used as controls to correct for non-specific binding.

Another data set has as its system whole Torpedo AChR. As to the kind of experiment: Radioimmunoassay of anti-AChR antisera: antibody binding to whole AChR. The format is in vivo, C57/BL6 mice. Conditions: anti-AChR antisera of pretreated mice, versus control groups. Here is the method: as §1, with “Finally, the mice were sacrificed on the 40th day and lymph node cells were obtained for” left out
(§2) One mg of the synthetic peptide was dissolved in 50 μl dimethylformamide and then diluted with PBS to 25 μg/ml. […] The plates were incubated for 3 hours at room temperature, after which they were washed and the wells were cut out and counted for bound radioactivity. […]

For the next data set, the system named is peptide α45-60. As to the kind of experiment: Radioimmunoassay of anti-AChR antisera: antibody binding to peptide α45-60. Conditions: anti-AChR antisera of pretreated mice, versus control groups. The format is in vivo, C57/BL6 mice. The protocol:
as §1, with “Finally, the mice were sacrificed on the 40th day and lymph node cells were obtained for” left out
as §2

The subject of a further data set is peptide α182-198. As to the kind of experiment: Radioimmunoassay of anti-AChR antisera: antibody binding to peptide α182-198. It is filed as in vivo, C57/BL6 mice. Conditions: anti-AChR antisera of pretreated mice, versus control groups. The protocol: as §1, with “Finally, the mice were sacrificed on the 40th day and lymph node cells were obtained for” left out
as §2

In another data set the test system is lymph node cells (LNC). As to the kind of experiment: T cell proliferation assay of lymph node cells from pretreated, AChR-primed mice. The format is in vivo, C57/BL6 mice. Conditions: LNC 5×10^5 cells/well from pretreated mice after AChR immunization. The protocol:
as §1, with “Thirty days later, the mice were immunized with a similar dose of the receptor in the opposite footpad and shoulder. On the 37th day, test bleeds were obtained from the mice for determination of the antibody titers. Electrophysiological studies were performed on the 38th and 39th days. Finally, the mice were sacrificed on the 40th day and lymph node cells were obtained for” left out
Lymph node cells (LNC) were harvested from the AChR-primed mice of each group ten or eleven days after the last AChR immunization. […] The number of viable cells was determined by vital staining with fluorescein diacetage (Rotman and Papermasters, 1966). […] After incubation for 3 days at 37° C. in a humidified air/CO2 (19:1) atmosphere, the cultures were pulsed (18 hr) with 1 μCi/well [^3 H]-thymidine (Research Products International, Mount Prospect, Ill,) and then harvested on to glass microfiber filters (Whatman, Clinton, N.J.) for counting of radioactivity by liquid scintillation.

The conditions of data set [2]: in vivo; cited from earlier work.
Where [3] appears, read: anti-AChR antisera of pretreated mice.

`CC[N+](C)(C)c1cccc(O)c1` [edrophonium chloride, reference compound]: in data set [1] (EAMG-positive mouse with -33% decrement, 3 minutes after i.p. injection of 250 μg, 3 Hz stimulation), the “decremental amplitude after edrophonium chloride” value is listed as -13%. In addition, the “effect on the typical myasthenic decremental response (in words)” value in data set [1] (i.p. injection of 250 μg) was “reversible”.
In the case of “mPEG-(α125-148): monomethoxypolyethylene glycol (MW 5000) succinate coupled to the N-terminal α-NH2 of Torpedo californica AChR peptide α125-148 ({mPEG 5000 succinate}-KSYCEIIVTHFPFDQQNCTMKLGI; disulfide 4-18 (inferred); UniProt P02710 149-172, looked up, fragment)”, the “proportion of mice showing a decremental response greater than 10%” value in data set [1] is listed as 20%. The “effect on development of electrophysiological EAMG (in words)” value in data set [1] (injection before immunization with whole Torpedo AChR) is on record as “suppresses development of electrophysiological EAMG but the suppression was incomplete; also recorded: suppressed the development of electrophysiological EAMG; also recorded: suppressed the development of experimental autoimmune myasthenia gravis (EAMG)”. Besides, the “antibody response against peptide α125-148 (in words)” value in the data set with peptide α125-148 (setting [3]) is reported as “significantly decreased; also recorded: specific decrease”. Moreover, the “antibody binding to peptide α125-148, mean net cpm±standard deviation” value with peptide α125-148 (anti-AChR antisera of pretreated mice, test bleed day 37) is on record as 1414 ±1801 cpm. Further, the “binding to peptide α125-148 of antibodies in pooled antisera at serial dilutions (in words)” value with peptide α125-148 is listed as “considerably lower antibody binding; also recorded: consistently lower”. The “antibody response against whole AChR (in words)” value in the data set on whole Torpedo AChR is listed as “no significant suppression; also recorded: not significantly different; also recorded: not altered”. Moreover, the “antibody response against peptide α45-60 (in words)” value with peptide α45-60 was “no significant suppression; also recorded: not significantly different”. The “antibody response against peptide α182-198 (in words)” value with peptide α182-198 was “no significant suppression; also recorded: not significantly different”. Moreover, in the data set with lymph node cells (LNC), the “T cell proliferative responses to peptide α125-148, AChR α-chain peptides or whole AChR (in words)” value is given as “did not show meaningful differences; also recorded: not detected; also recorded: no detectable changes”.
`CC[C@H](C)[C@H](NC(=O)CNC(=O)[C@H](CC(C)C)NC(=O)[C@H](CCCCN)NC(=O)[C@H](CCSC)NC(=O)[C@@H](NC(=O)[C@@H]1CSSC[C@H](NC(=O)[C@H](Cc2ccc(O)cc2)NC(=O)[C@H](CO)NC(=O)[C@@H](N)CCCCN)C(=O)N[C@@H](CCC(=O)O)C(=O)N[C@@H]([C@@H](C)CC)C(=O)N[C@@H]([C@@H](C)CC)C(=O)N[C@@H](C(C)C)C(=O)N[C@@H]([C@@H](C)O)C(=O)N[C@@H](Cc2c[nH]cn2)C(=O)N[C@@H](Cc2ccccc2)C(=O)N2CCC[C@H]2C(=O)N[C@@H](Cc2ccccc2)C(=O)N[C@@H](CC(=O)O)C(=O)N[C@@H](CCC(N)=O)C(=O)N[C@@H](CCC(N)=O)C(=O)N[C@@H](CC(N)=O)C(=O)N1)[C@@H](C)O)C(=O)O` [free α125-148, reference compound] (H-KSYCEIIVTHFPFDQQNCTMKLGI-OH; disulfide 4-18): the “proportion of mice showing a decremental response greater than 10%” value in data set [1] is reported as 56%. Besides, the “antibody response against peptide α125-148 (in words)” value in the data set with peptide α125-148 (setting [3]) is listed as “no decrease”. Further, the “binding to peptide α125-148 of antibodies in pooled antisera at serial dilutions (in words)” value in the data set with peptide α125-148 is listed as “consistently greater than the other two controls”.
In the case of monomethoxypolyethylene glycol [mPEG], the “harmful or toxic effects in humans (in words)” value in data set [2] is “does not seem to have any harmful or toxic effects”.
